Legend:
Tricophyton mentagrophy = conditions: 50 μg/disk
Aspergillus oryzae = conditions: 50 μg/disk
Candida albicans = conditions: 50 μg/disk
[1] = test system: human colon carcinoma HT-29; assay: In vitro cytotoxicity, HT-29 cell culture; format: cell-based; conditions: HT-29 cells
Experimental: (§1) The antitumor activities of this compound has been determined “in vitro” in cell cultures of human lung carcinoma A-549 and human colon carcinoma HT-29. The procedure was carried out using the metnhodology methodology described by Raymond J. Bergeron et al. Biochem. Bioph. Res. Comm. 1984, 121(3), 848-854 and by Alan C. Schroeder et al. J. Med. Chem. 1981, 24 1078-1083.

HSV-1 = conditions: CV-1 cells / HSV-1
HSV II = conditions: Mv 2 Lu cells / HSV II; concentration giving the printed % reduction
Penicillium notatum = conditions: 50 μg/disk
[2] = test system: human lung carcinoma A-549; assay: In vitro cytotoxicity, A-549 cell culture; format: cell-based; conditions: A-549 cells
Experimental: as §1

Saccharomyces cerevisiac = conditions: 50 μg/disk

C/C=C1\NC(=O)[C@H](Cc2ccccc2)NC(=O)[C@@H](C(C)C)NC(=O)[C@@H]([C@@H](C)CC)NC(=O)[C@H](NC(=O)[C@H](NC(=O)[C@H](CCCN)NC(=O)[C@H]2CCCN2C(=O)[C@H](NC(=O)[C@@H](NC(=O)[C@@H](NC(=O)[C@H](NC(=O)CCCC(C)C)C(C)C)[C@@H](C)O)C(C)C)C(C)C)[C@@H](C)CC)[C@@H](C)OC(=O)[C@H](C(C)C)NC1=O [Kahalalide F]
Antifungal 6 mm disk (Tricophyton mentagrophy): 34 mm | Antifungal 6 mm disk (Aspergillus oryzae): 19 mm | Antifungal 6 mm disk (Candida albicans): 16 mm | Cytoxicity (IC50) [1]: 0.25 to 0.5 µg/mL | Antiviral (HSV-1): >8 µg/mL | Antiviral (VSV): >8 µg/mL | Antiviral (HSV II): 0.5 µg/mL | Antifungal 6 mm disk (Penicillium notatum): 26 mm | Cytoxicity (IC50) [2]: 2.5 µg/mL | Antifungal 6 mm disk (Saccharomyces cerevisiac): neg

Reference: patent publication USRE39496E1, “Kahalalide F and compositions and uses thereof” (PharmaMar, S.A., priority 1993, dated 2007)
